# pKi: −log10 of the molar value. Structures can show the parent of a compound that is named as a salt.
# Tests used:
# 5-HT2C receptors [1] = target: T1, 5-HT2C receptors (Sus scrofa, UniProt K7GSR7); experiment: biochemical; assay type: binding, pig; conditions: for Ki: 5-HT2C Ki (nM), pig cerebral plexus, [3H]-mesulergine 1.0 nM, average of two to four determinations
# T1 construct: pig cerebral plexus; from tissue; host or cells: pig cerebral plexus (own knowledge: choroid plexus)
# T1 sequence (K7GSR7 1-457): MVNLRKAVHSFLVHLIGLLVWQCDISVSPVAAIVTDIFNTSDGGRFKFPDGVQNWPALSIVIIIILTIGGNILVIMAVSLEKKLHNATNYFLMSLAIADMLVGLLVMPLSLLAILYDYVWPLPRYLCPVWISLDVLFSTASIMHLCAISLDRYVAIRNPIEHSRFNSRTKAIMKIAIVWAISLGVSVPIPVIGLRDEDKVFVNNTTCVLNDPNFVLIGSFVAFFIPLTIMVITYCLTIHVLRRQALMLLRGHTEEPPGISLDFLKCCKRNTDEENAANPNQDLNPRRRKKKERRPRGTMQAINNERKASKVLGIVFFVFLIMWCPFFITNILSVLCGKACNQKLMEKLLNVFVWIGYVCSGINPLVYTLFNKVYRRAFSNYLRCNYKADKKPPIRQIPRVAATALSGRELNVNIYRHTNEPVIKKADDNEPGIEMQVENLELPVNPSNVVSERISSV
# Experimental: (§1) Measurement of the in vitro affinity for the 5-HT2C and 5-HT2A receptors
# (§2) The procedures described for the studies of the binding to the 5-HT2A and 5-HT2C receptors are exactly those described by H. Canton et al. (Eur. J. Pharmacol., 191, 93, 1990) and M. J. Millan et al. (J. Pharmacol. Exp. Ther., 262, 451-463, 1992). For 5-HT2A : rat frontal cortex/[^3 H]-ketanserin (1.0 nM). For 5-HT2C : pig […] plexus/[^3 H]-mesulergine (1.0 nM). The 50% inhibitory doses (ID50) are determined by regression analysis and the pKi values are calculated as follows: [formula] [L]=concentration of the Kd-Kd=dissociation constant Results
# 5-HT2C receptors [2] = experiment: biochemical; assay type: binding, pig; conditions: for 5-HT2A /5-HT2C affinity ratio: 5-HT2A Ki (rat frontal cortex) over 5-HT2C Ki (pig cerebral plexus); for selectivity relative to the reference compound SB 200,646: 5-HT2C vs 5-HT2A, relative to SB 200,646
# Experimental: as §1, §2
# 5-HT2A receptors = target: T2, 5-HT2A receptors (Rattus norvegicus, UniProt P14842); experiment: In vitro affinity for the 5-HT2A receptors, rat frontal cortex/[3H]-ketanserin (1.0 nM); assay type: binding; conditions: rat frontal cortex, [3H]-ketanserin 1.0 nM; average of two to four determinations
# T2 construct: rat frontal cortex; from tissue; host or cells: rat frontal cortex
# Experimental: as §1, §2
# T2 sequence (P14842 whole entry): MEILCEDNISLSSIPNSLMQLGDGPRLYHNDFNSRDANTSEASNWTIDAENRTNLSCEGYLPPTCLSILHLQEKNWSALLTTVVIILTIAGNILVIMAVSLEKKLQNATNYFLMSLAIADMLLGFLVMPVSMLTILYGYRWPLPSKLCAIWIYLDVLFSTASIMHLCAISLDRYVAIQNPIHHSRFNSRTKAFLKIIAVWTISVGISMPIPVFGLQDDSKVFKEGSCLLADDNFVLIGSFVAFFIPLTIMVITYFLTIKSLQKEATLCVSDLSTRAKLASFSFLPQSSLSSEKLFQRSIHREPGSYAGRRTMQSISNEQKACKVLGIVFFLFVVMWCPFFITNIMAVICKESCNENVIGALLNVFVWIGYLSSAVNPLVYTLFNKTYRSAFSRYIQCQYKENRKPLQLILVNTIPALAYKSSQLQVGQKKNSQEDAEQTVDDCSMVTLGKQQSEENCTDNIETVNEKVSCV
compound,measurement,setting,value
"Cl.Oc1cccc2c1[C@H]1CN(Cc3ccccc3)C[C@@H]1CO2 (relative stereo) [Example 2, trans-2-Benzyl-9-hydroxy-1,3,3a,4,9b-pentahydro-(1)-benzopyrano[3,4-c]pyrrole hydrochloride]",Ki,5-HT2C receptors [1],195 nM
same,5-HT2A /5-HT2C affinity ratio,5-HT2C receptors [2],2.5
same,pKi,5-HT2A receptors,6.31
"COc1cccc2c1[C@H]1CN(Cc3ccccc3)C[C@H]1CO2 (relative stereo) [Example 15, cis-2-Benzyl-9-methoxy-1,3,3a,4,9b-pentahydro-(1)-benzopyrano[3,4-c]pyrrolehydrochloride]",Ki,5-HT2C receptors [1],36.3 nM
same,5-HT2A /5-HT2C affinity ratio,5-HT2C receptors [2],10.7
same,pKi,5-HT2A receptors,6.41
"COc1cccc2c1[C@H]1CN(Cc3ccccc3)C[C@@H]1CO2.Cl (relative stereo) [Example 3, trans-2-Benzyl-9-methoxy-1,3,3a,4,9b-pentahydro-(1)-benzopyrano[3,4-c]pyrrole hydrochloride]",Ki,5-HT2C receptors [1],48 nM
same,5-HT2A /5-HT2C affinity ratio,5-HT2C receptors [2],5.6
same,pKi,5-HT2A receptors,6.57
"Cl.c1ccc(CN2C[C@@H]3COc4ccccc4[C@@H]3C2)cc1 (relative stereo) [Example 12, cis-2-Benzyl-1,3,3a,4,9b-pentahydro-(1)-benzopyrano[3,4-c]pyrrole hydrochloride]",Ki,5-HT2C receptors [1],832 nM
same,5-HT2A /5-HT2C affinity ratio,5-HT2C receptors [2],4.3
same,pKi,5-HT2A receptors,5.45
"COc1ccc2c(c1)OC[C@H]1CN(Cc3ccccc3)C[C@H]21.Cl (relative stereo) [Example 22, trans-2-Benzyl-7-methoxy-1,3,3a,4,9b-pentahydro-(1)-benzopyrano[3,4-c]pyrrole hydrochloride]",Ki,5-HT2C receptors [1],478 nM
same,5-HT2A /5-HT2C affinity ratio,5-HT2C receptors [2],3.6
same,pKi,5-HT2A receptors,6.77
"Cl.c1ccc2c3c(ccc2c1)OC[C@@H]1CNC[C@H]31 (relative stereo) [Example 38, cis-1,2,3,3a,4,11c-Hexahydro-5-oxa-2-aza-cyclopenta[c]phenanthrene hydrochloride]",Ki,5-HT2C receptors [1],22.9 nM
same,5-HT2A /5-HT2C affinity ratio,5-HT2C receptors [2],4.3
same,pKi,5-HT2A receptors,7.01
"Cl.c1ccc2c(c1)OC[C@H]1CNC[C@@H]21 (relative stereo) [Example 13, cis-1,3,3a,4,9b-Pentahydro-(1)-benzopyrano[3,4-c]pyrrole hydrochloride]",Ki,5-HT2C receptors [1],3090 nM
same,5-HT2A /5-HT2C affinity ratio,5-HT2C receptors [2],> 3.33
same,pKi,5-HT2A receptors,< 5.00
"COc1cccc2c1[C@H]1CNC[C@@H]1CO2.Cl (relative stereo) [Example 4, trans-9-Methoxy-1,3,3a,4,9b-pentahydro-(1)-benzopyrano[3,4-c]pyrrole hydrochloride]",Ki,5-HT2C receptors [1],431 nM
same,5-HT2A /5-HT2C affinity ratio,5-HT2C receptors [2],8.0
same,pKi,5-HT2A receptors,5.46
"C=CCN1C[C@@H]2COc3cccc(OC)c3[C@H]2C1 (relative stereo) [Example 7, trans-2-Allyl-9-methoxy-1,3,3a,4,9b-pentahydro-(1)-benzopyrano[3,4-c]pyrrol]",Ki,5-HT2C receptors [1],120 nM
same,5-HT2A /5-HT2C affinity ratio,5-HT2C receptors [2],15.2
same,"selectivity relative to the reference compound SB 200,646",5-HT2C receptors [2],"twice that of the reference compound SB 200,646"
same,pKi,5-HT2A receptors,5.74
"Cl.Clc1ccc2c(c1)OC[C@H]1CN(Cc3ccccc3)C[C@H]21 (relative stereo) [Example 18, trans-2-Benzyl-7-chloro-1,3,3a,4,9b-pentahydro-(1)-benzopyrano[3,4-c]pyrrole hydrochloride]",Ki,5-HT2C receptors [1],871 nM
same,5-HT2A /5-HT2C affinity ratio,5-HT2C receptors [2],2.1
same,pKi,5-HT2A receptors,5.73
"c1ccc(CN2C[C@H]3COc4ccc5ccccc5c4[C@H]3C2)cc1 (relative stereo) [Example 37, cis-2-Benzyl-1,2,3,3a,4,11c-hexahydro-5-oxa-2-aza-cyclopenta[c]phenanthrenehydrochloride]",Ki,5-HT2C receptors [1],155 nM
same,5-HT2A /5-HT2C affinity ratio,5-HT2C receptors [2],8.7
same,pKi,5-HT2A receptors,5.87
"CCCN1C[C@@H]2COc3ccc(OC)cc3[C@H]2C1.Cl (relative stereo) [Example 11, trans-2-Propyl-8-methoxy-1,3,3a,4,9b-pentahydro-(1)-benzopyrano[3,4-c]pyrrole hydrochloride]",Ki,5-HT2C receptors [1],4070 nM
same,5-HT2A /5-HT2C affinity ratio,5-HT2C receptors [2],> 2.3
same,pKi,5-HT2A receptors,< 5.00
"c1ccc2c(c1)OC[C@@H]1CN(CCOc3cccc4c3SCCC4)C[C@H]21 (relative stereo) [Example 19, cis-2-[2-(Thiochroman-8-yloxy)ethyl]-1,3,3a,9b-pentahydro-(1)-benzopyrano[3,4-c]pyrrole hydrochloride]",Ki,5-HT2C receptors [1],22 nM
same,"times more powerful antagonists than the reference compound SB 200,646","5-HT2C receptors [1]; relative to SB 200,646",9 times
same,5-HT2A /5-HT2C affinity ratio,5-HT2C receptors [2],7.0
same,pKi,5-HT2A receptors,6.81
"COc1cccc2c1[C@@H]1CNC[C@@H]1CO2.Cl (relative stereo) [Example 16, cis-9-Methoxy-1,3,3a,4,9b-pentahydro-(1)-benzopyrano[3,4-c]pyrrole hydrochloride]",Ki,5-HT2C receptors [1],263 nM
same,5-HT2A /5-HT2C affinity ratio,5-HT2C receptors [2],12.6
same,pKi,5-HT2A receptors,5.48
"Cl.c1ccc(CN2C[C@@H]3COc4c(ccc5ccccc45)[C@@H]3C2)cc1 (relative stereo) [Example 35, cis-16-Benzyl-12,13,14,15,16,17-hexahydro-11-oxa-16-aza-cyclopenta[a]phenanthrene hydrochloride]",Ki,5-HT2C receptors [1],331 nM
same,5-HT2A /5-HT2C affinity ratio,5-HT2C receptors [2],2.9
same,pKi,5-HT2A receptors,6.02
"COc1ccc2c(c1)OC[C@@H]1CN(Cc3ccccc3)C[C@H]21 (relative stereo) [Example 21, cis-2-Benzyl-7-methoxy-1,3,3a,4,9b-pentahydro-(1)-benzopyrano[3,4-c]pyrrolehydrochloride]",Ki,5-HT2C receptors [1],871 nM
same,5-HT2A /5-HT2C affinity ratio,5-HT2C receptors [2],0.7
same,pKi,5-HT2A receptors,6.21
"COc1cccc2c1[C@@H]1CN(CCNC(=O)c3ccc(F)cc3)C[C@H]1CO2 (relative stereo) [Example 8, trans-2-[3-(4-Fluorobenzoylamino)ethyl]-9-methoxy-1,3,3a,4,9b-pentahydro-(1)-benzopyrano[3,4-c]pyrrole]",Ki,5-HT2C receptors [1],107 nM
same,5-HT2A /5-HT2C affinity ratio,5-HT2C receptors [2],0.9
same,pKi,5-HT2A receptors,7.02
"Cl.c1ccc2c3c(ccc2c1)OC[C@@H]1CNC[C@@H]31 (relative stereo) [Example 33, trans-1,2,3,3a,4,11c-Hexahydro-5-oxa-2-aza-cyclopenta[c]phenanthrene hydrochloride]",Ki,5-HT2C receptors [1],51 nM
same,5-HT2A /5-HT2C affinity ratio,5-HT2C receptors [2],2.1
same,pKi,5-HT2A receptors,6.97
"COc1ccc2c(c1)[C@H]1CN(Cc3ccccc3)C[C@@H]1CO2.Cl (relative stereo) [Example 9, trans-2-Benzyl-8-methoxy-1,3,3a,4,9b-pentahydro-(1)-benzopyrano[3,4-c]pyrrole hydrochloride]",Ki,5-HT2C receptors [1],468 nM
same,5-HT2A /5-HT2C affinity ratio,5-HT2C receptors [2],2.3
same,pKi,5-HT2A receptors,5.96
"Clc1ccc2c(c1)[C@H]1CN(Cc3ccccc3)C[C@H]1CO2 (relative stereo) [Example 24, cis-2-Benzyl-8-chloro-1,3,3a,4,9b-pentahydro-(1)-benzopyrano[3,4-c]pyrrolehydrochloride]",Ki,5-HT2C receptors [1],38 nM
same,5-HT2A /5-HT2C affinity ratio,5-HT2C receptors [2],2.8
same,pKi,5-HT2A receptors,6.97
"COc1ccc2c(c1)[C@H]1CNC[C@@H]1CO2.Cl (relative stereo) [Example 10, trans-8-Methoxy-1,3,3a,4,9b-pentahydro-(1)-benzopyrano[3,4-c]pyrrole hydrochloride]",Ki,5-HT2C receptors [1],2190 nM
same,5-HT2A /5-HT2C affinity ratio,5-HT2C receptors [2],> 4.8
same,pKi,5-HT2A receptors,< 5.00
"Oc1cccc2c1[C@H]1CN(Cc3ccccc3)C[C@H]1CO2 (relative stereo) [Example 14, cis-2-Benzyl-9-hydroxy-1,3,3a,4,9b-pentahydro-(1)-benzopyrano[3,4-c]pyrrolehydrochloride]",Ki,5-HT2C receptors [1],219 nM
same,5-HT2A /5-HT2C affinity ratio,5-HT2C receptors [2],5.00
same,pKi,5-HT2A receptors,5.96
"CCCN1C[C@@H]2COc3cccc(OC)c3[C@H]2C1 (relative stereo) [Example 6, trans-2-Propyl-9-methoxy-1,3,3a,4,9b-pentahydro-(1)-benzopyrano[3,4-c]pyrrole]",Ki,5-HT2C receptors [1],104 nM
same,5-HT2A /5-HT2C affinity ratio,5-HT2C receptors [2],16.7
same,"selectivity relative to the reference compound SB 200,646",5-HT2C receptors [2],"twice that of the reference compound SB 200,646"
same,pKi,5-HT2A receptors,5.76
"Cl.c1ccc2c3c(ccc2c1)[C@@H]1CNC[C@@H]1CO3 (relative stereo) [Example 36, cis-12,13,14,15,16,17-Hexahydro-11-oxa-16-aza-cyclopenta[a]phenanthrene hydrochloride]",Ki,5-HT2C receptors [1],25.7 nM
same,5-HT2A /5-HT2C affinity ratio,5-HT2C receptors [2],10
same,pKi,5-HT2A receptors,6.59
"Cl.c1ccc(CN2C[C@H]3COc4c(ccc5ccccc45)[C@@H]3C2)cc1 (relative stereo) [Example 34, trans-16-Benzyl-12,13,14,15,16,17-hexahydro-11-oxa-16-aza-cyclopenta[a]phenanthrene hydrochloride]",Ki,5-HT2C receptors [1],776 nM
same,5-HT2A /5-HT2C affinity ratio,5-HT2C receptors [2],1.9
same,pKi,5-HT2A receptors,5.83
